Results published in patent publication US8642801B2 (BHI Limited Partnership, priority 2003, dated 2014).

Assays:
NAC peptide = biological target: T1, NAC peptide (Homo sapiens, UniProt P37840); experiment: Binding to NAC peptide by electrospray mass spectrometry; settings: 5:1 ratio (20 μM NAC: 100 μM test compound or 40 μM NAC: 200 μM test compound), 6.6% EtOH, pH 7.4; bound complex peak area / unbound NAC peak area
T1 construct: NAC is a 35 amino acid long peptide with highly hydrophobic stretches
Procedure: The ability of the compounds of the present invention to bind to NAC peptide in aqueous solution was evaluated. The binding ability correlates to the intensities of the peptide-compound complex peaks observed by the Electrospray Mass Spectrum. Millipore distilled deionized water was used to prepare all aqueous solutions. For pH determination a Beckman Φ36 pH meter fitted with a Corning Semi-Micro Combination pH Electrode was employed.
The optimal cone voltage was determined to be 20V.
Mass spectrometry—Mass spectrometric analysis was performed using a Waters ZQ 4000 mass spectrometer equipped with a Waters 2795 sample manager. MassLynx 4.0 (earlier by MassLynx 3.5) was used for data processing and analysis. Test compounds were mixed with disaggregated peptides in aqueous media (6.6% EtOH) at a 5:1 ratio (20 μM NAC: 100 μM of test compound or 40 μM NAC:200 μM of test compound). The pH of the mixture was adjusted to 7.4 (±0.2) using 0.1% NaOH (3-5 μL). Periodically, NAC peptide solution at 20 μM or 40 μM was also prepared in the same fashion and run as control. The spectra were obtained by introducing the solutions to the electrospray source by direct infusion using a syringe pump at a flow rate of 25 μl/min, and scanning from 100 to 2100 Da in the positive mode. The scan time was 0.9 sec per scan with an inter-scan delay of 0.1 sec and the run time was 5 min for each sample. All the mass spectra were sum of 300 scans. The desolvation and source temperature was 70° C. and the cone and capillary voltage were maintained at 20 V and 3.2 kV respectively.
The total area under the peaks for the bound NAC-compound complex divided by total area under the peaks for unbound NAC was determined for each compound tested.

Aβ1-40 = biological target: T2, Aβ1-40 (Homo sapiens, UniProt P05067); experiment: MS (electrospray mass spectrometry) binding assay for Aβ40; settings: Table 3C; 20 μM Aβ peptide, 100 μM compound
T2 construct: most is normally secreted as a 40 (“Aβ1-40”) or 42 (“Aβ1-42”) amino acid peptide
T2 sequence (P05067 672-711 limits assumed): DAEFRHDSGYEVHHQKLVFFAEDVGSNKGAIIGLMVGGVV
Description: (§1) The ability of a therapeutic compound of the invention to inhibit an interaction between an amyloidogenic protein and a glycoprotein or proteoglycan constituent of a basement membrane can be assessed by an in vitro binding assay, such as that described in U.S. Pat. No. 5,164,295, the contents of which are hereby incorporated by reference. Alternatively, the ability of a compound to bind to an amyloidogenic protein or to inhibit the binding of a basement membrane constituent (e.g., HSPG) to an amyloidogenic protein (e.g., Aβ) can be measured using a mass spectrometry assay where soluble protein, e.g., Aβ, IAPP, β2M is incubated with the compound. A compound which binds to, e.g., Aβ, will induce a change in the mass spectrum of the protein. Exemplary protocols for a mass spectrometry assay employing Aβ and IAPP can be found in the Examples, the results of which are provided in Table 3. The protocol can readily be modified to adjust the sensitivity of the data, e.g., by adjusting the amount of protein and/or compound employed. Thus, e.g., binding might be detected for test compounds noted as not having detectable binding employing less sensitive test protocols.
(§2) The test compounds were synthesized and screened by mass spectrometry (“MS”) assays, except for selected compounds which were purchased from a commercial source. The MS assay gives data on the ability of compounds to bind to proteins, in this example, to β-amyloid and IAPP.
(§3) The pH value of each sample was adjusted to 7.4 (±0.2) by addition of 0.1% aqueous sodium hydroxide. The solutions were then analyzed by electrospray ionization mass spectrometry using a Waters ZQ 4000 mass spectrometer. Samples were introduced by direct infusion at a flow-rate of 25 μL/min within 2 hr. after sample preparation. The source temperature was kept at 70° C. and the cone voltage was 20 V for all the analysis. Data were processed using Masslynx 3.5 software. The MS assay gives data on the ability of compounds to bind to soluble Aβ, whereas the ThT, EM and CD assays give data on inhibition of fibrillogenesis. In Table 3, a blank box means that a value was not determined for that compound in that assay.

IAPP = biological target: T3, IAPP (Homo sapiens, UniProt P10997); experiment: MS (electrospray mass spectrometry) binding assay for IAPP; settings: Table 3C; 20 μM Aβ peptide, 100 μM compound (so in the source)
T3 construct: which is a 37 amino acid peptide, derived from a larger precursor peptide, called pro-IAPP
T3 sequence (P10997 34-70 limits assumed): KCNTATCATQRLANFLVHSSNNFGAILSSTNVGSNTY
Description: as §1, §2
as §3, with “In the MS assay for Aβ40, samples were prepared as aqueous solutions (adding 20% ethanol if necessary to solubilize in water), 200 μM of a test compound and 20 μM of solubilized Aβ40, or 400 μM of a test compound and 40 μM of solubilized Aβ40. The pH” for “The pH”
The key below describes the codes used in Table 3A to quantify the binding based on the intensity of the absorption.

Compound: NCCCCS(=O)(=O)O
- NAC peptide Binding Strength (NAC peptide): + (+ = Weak; when the total binding is between 70% and 30%)

Compound: NCCCOS(=O)(=O)[O-].[Na+] [H2NCH2CH2CH2OSO3Na]
- NAC peptide Binding Strength (NAC peptide): ++ (++ = Moderate; when the total binding is between 120% and 70%)

Compound: NCCS(=O)(=O)O [H2NCH2CH2SO3H]
- NAC peptide Binding Strength (NAC peptide): + (+ = Weak; when the total binding is between 70% and 30%)

Compound: C[C@@H]([C@H](O)c1ccccc1)N(C)CCCS(=O)(=O)O [JE]
- MS binding Aβ1-40 (Aβ1-40): − (<20%=(−))
- MS binding IAPP (IAPP): ++ (40-74% binding=(++))

Compound: CC(CCNC1CCCc2ccccc21)S(=O)(=O)O (stereo not drawn) [JF, 4-(1,2,3,4-tetrahydro-1-naphthylamino)-2-butanesulfonic acid]
- MS binding Aβ1-40 (Aβ1-40): + (20-39% binding=(+))
- MS binding IAPP (IAPP): ++ (40-74% binding=(++))

Compound: CC(CCNC1CC2CCC1C2)S(=O)(=O)O (stereo not drawn) [JJ, 4-(bicyclo[2.2.1]hept-2-ylamino)-2-butanesulfonic acid]
- MS binding Aβ1-40 (Aβ1-40): ++ (40-74% binding=(++))
- MS binding IAPP (IAPP): +++ (75-100% binding=(+++))

Compound: O=S(=O)([O-])CCC[N+]12CCC(CC1)CC2 [JM]
- MS binding Aβ1-40 (Aβ1-40): − (<20%=(−))
- MS binding IAPP (IAPP): + (20-39% binding=(+))

Compound: CCCCCCCCCNCCC(C)S(=O)(=O)[O-].[Na+] (stereo not drawn) [JN, 4-(nonylamino)-2-butanesulfonic acid]
- MS binding Aβ1-40 (Aβ1-40): ++ (40-74% binding=(++))
- MS binding IAPP (IAPP): + (20-39% binding=(+))

Compound: CC(CCN(C)C)S(=O)(=O)[O-].[Na+] (stereo not drawn) [JO, 4-(dimethylamino)-2-butanesulfonic acid]
- MS binding Aβ1-40 (Aβ1-40): + (20-39% binding=(+))
- MS binding IAPP (IAPP): ++ (40-74% binding=(++))

Compound: NCCOS(=O)(=O)O [NH2CH2CH2OSO3H]
- NAC peptide Binding Strength (NAC peptide): − (− = None; when the total binding is between 30% and 0%)

Compound: O=S(=O)([O-])CCCCS(=O)(=O)[O-].[Na+].[Na+] [NaO3SCH2(CH2)2CH2SO3Na]
- NAC peptide Binding Strength (NAC peptide): − (− = None; when the total binding is between 30% and 0%)

Compound: O=S(=O)([O-])OCCCOS(=O)(=O)[O-].[Na+].[Na+] [NaO3SOCH2CH2CH2OSO3Na]
- NAC peptide Binding Strength (NAC peptide): − (− = None; when the total binding is between 30% and 0%)

Compound: CC(C)(C)NCCCS(=O)(=O)O [drawing 487]
- NAC peptide Binding Strength (NAC peptide): ++ (++ = Moderate; when the total binding is between 120% and 70%)

Compound: O=S(=O)(O)CCCNC1C2CC3CC(C2)CC1C3 (stereo not drawn) [drawing 488]
- NAC peptide Binding Strength (NAC peptide): ++ (++ = Moderate; when the total binding is between 120% and 70%)

Compound: O=S(=O)(O)CC(O)CNC1CCCCC1 (stereo not drawn) [drawing 490]
- NAC peptide Binding Strength (NAC peptide): +++ (+++ = Strong; when the total binding is 120% and higher)
